How the values were obtained:
[1] = Uptake experiment: diPAP mixture by oral gavage, analytes in whole blood; assay type: in vivo, Sprague-Dawley rats; conditions: for Tmax / Cmax / Half-life: diPAP gavage dose, whole blood; for Cmax / Half-life: mean ± SE; for Cmax: values in parentheses < LOQ but > LOD; for Half-life: about 50 mg/kg each
Protocol: (§1) This research was conducted under an animal use protocol approved by the University of Toronto Animal Care Committee. All animals were treated humanely and with regard for alleviation of suffering. Sprague-Dawley rats were obtained from Charles River Laboratories Inc. (Sherbrooke, QC, Canada) The animals were singly housed and exposed to a 12/12 hr light/dark cycle with food and water available ad libitum. Blood samples were collected from the saphenous vein using Microvette CB 300 vials (Sarstedt AG & Co., Montreal, QC, Canada) embedded with lithium-heparin as an anticoagulant. Whole-blood samples were stored at −20°C, and urine and feces samples were stored at 4°C.
(§2) Two groups of four 8-week-old male rats were administered a mixture of 4:2, 6:2, 8:2, and 10:2 diPAP or monoPAP, respectively, each at about 50 mg/kg, at 4 mL/kg by oral gavage without prior fasting. […] Two control male rats were administered clean vehicle at 4 mL/kg [for details, see Supplemental Material, Table 3 (doi:10.1289/ehp.1002409)].
(§3) Blood was collected from all animals 3 days before dosing to establish background contamination. For the uptake experiment, blood samples were collected at 1, 3, and 6 hr and 1, 2, 4, 7, 10, 14, 18, and 22 days after dosing. For the elimination experiment, blood samples were collected at 2, 4, and 6 hr and 1, 2, 4, 8, 11, 15, and 18 days after dosing. On the final sampling day, the animals were sacrificed by carbon dioxide asphyxiation, and about 10 mL of blood was collected by cardiac puncture into a BD Vacutainer embedded with lithium-heparin.
(§4) The compounds of interest fall into four categories: a) the diPAP and monoPAP parent compounds, b) the saturated and unsaturated fluorotelomer carboxylic acid (FTCA and FTUCA) metabolic intermediates, c) the FTOH-sulfate and FTOH-glucuronide phase II metabolites, and d) the final PFCA biotransformation products [see Supplemental Material, Table 1 (doi:10.1289/ehp.1002409)]. We analyzed these compounds in whole blood, urine, and feces samples. For full analytical details, see Supplemental Material. All PFCAs, FTCAs, FTUCAs, and phase II metabolites were quantified by internal calibration. Because internal standards were not available, monoPAPs and diPAPs were quantified by standard addition. We performed spike and recovery experments to validate the extraction and quantification techniques used (for details, see Supplemental Material).
(§5) Analyte and matrix specific limits of detection (LODs) and limits of quantification (LOQs) are provided in Supplemental Material (doi:10.1289/ehp.1002409). For the purpose of calculating means, values < LOD were assigned a value of zero, and values < LOQ but > LOD were used unaltered but are indicated by asterisks in figures and parentheses in tables. Values are presented using the arithmetic mean ± SE. Full data sets are available in Supplemental Material. […]

[2] = Elimination experiment: monoPAP mixture by IV injection, analytes in whole blood; assay type: in vivo, Sprague-Dawley rats; conditions: for Half-life / Cmax / Tmax: monoPAP IV dose; for Half-life: about 15 mg/kg each, PFCA product in whole blood; for Cmax / Tmax: whole blood
Protocol: as §1
(§6) Two groups of four 8-week-old male rats were administered a mixture of 4:2, 6:2, 8:2, and 10:2 diPAP or monoPAP, respectively, each at about 15 mg/kg, at 2 mL/kg by intravenous (IV) injection into the lateral tail vein. The dosing vehicle was 50:50 propylene glycol:water. Two control male rats were administered clean vehicle at 2 mL/kg [for details see Supplemental Material, Table 3 (doi:10.1289/ehp.1002409)].
as §3, §4
(§7) Analyte and matrix specific limits of detection (LODs) and limits of quantification (LOQs) are provided in Supplemental Material (doi:10.1289/ehp.1002409). For the purpose of calculating means, values < LOD were assigned a value of zero, and values < LOQ but > LOD were used unaltered but are indicated by asterisks in figures and parentheses in tables. Values are presented using the arithmetic mean ± SE. Full data sets are available in Supplemental Material.

[3] = Elimination experiment: diPAP mixture by IV injection, analytes in whole blood; assay type: in vivo, Sprague-Dawley rats; conditions: for Half-life / Tmax / Cmax / Cmax (ng/g): diPAP IV dose, whole blood; for Half-life: about 15 mg/kg each; for Half-life / Cmax / Cmax (ng/g): mean ± SE; for Cmax / Cmax (ng/g): values in parentheses < LOQ but > LOD
Protocol: as §1, §6, §3, §4, §5

[4] = Uptake experiment: monoPAP mixture by oral gavage, analytes in whole blood; assay type: in vivo, Sprague-Dawley rats; conditions: for Tmax / Cmax / Cmax (ng/g): whole blood; for Cmax / Cmax (ng/g): values in parentheses < LOQ but > LOD
Protocol: as §1, §2, §3, §4, §7

[5] = Renal elimination: analytes in urine collected in metabolic cages; assay type: in vivo, Sprague-Dawley rats
Protocol: as §1, with “4°C. […]” for “4°C.”
as §4, with “For full analytical details, see Supplemental Material.” left out, “We performed spike and recovery experments to validate the extraction and quantification techniques used (for details, see Supplemental Material).” left out

[6] = set-up: method as in Chang et al. 2008; Ohmori et al. 2003; conditions: male rats; ref Chang et al. 2008; Ohmori et al. 2003; cited from earlier work
[7] = male, Sprague-Dawley, rat, in vivo, 15 mg/kg, read-out: Cmax
[8] = male, Sprague-Dawley, rat, in vivo, 15 mg/kg, read-out: Tmax (converted)

O=C(O)CC(F)(F)C(F)(F)C(F)(F)C(F)(F)F [4:2 FTCA]
Detection in blood (time points) ([1]; after diPAP oral gavage): 6 hr postdosing, but in only one animal
Detection in blood (time points) ([2]; after monoPAP IV dosing): 2 hr postdosing

O=C(O)[C@H]1O[C@@H](OCCC(F)(F)C(F)(F)C(F)(F)C(F)(F)F)[C@H](O)[C@@H](O)[C@@H]1O [4:2 FTOH-glucuronide]
Detection in blood (time points) ([3]; rat, in vivo, iv): in the blood 2 hr postdosing
Detection in blood (time points) ([4]; rat, in vivo, po): observed at 2 hr and 6 hr postdosing
Detection in blood (time points) ([2]; rat, in vivo, iv): in the blood 2 hr after dosing
Observation in urine ([5]; rat, in vivo): consistently observed

O=S(=O)(O)OCCC(F)(F)C(F)(F)C(F)(F)C(F)(F)F [4:2 FTOH-sulfate]
Detection in blood (time points) ([3]; after IV diPAP dosing): in the blood 2 hr postdosing
Detection in blood (time points) ([2]; after monoPAP IV dosing): in the blood 2 hr after dosing
Observation in urine ([5]; urine samples from all dosing regimes): consistently observed

O=C(O)C=C(F)C(F)(F)C(F)(F)C(F)(F)F [4:2 FTUCA]
Detection in blood (time points) ([1]; rat, in vivo, po): 6 hr postdosing, but in only one animal
Detection in blood (time points) ([2]; rat, in vivo, iv): 2 hr postdosing

O=C(O)CCC(F)(F)C(F)(F)C(F)(F)C(F)(F)C(F)(F)F [5:3 FTCA]
Detection in blood (time points) ([3]; after IV diPAP dosing): in the samples from 2 hr to 2 days postdosing
Detection in blood (time points) ([4]; after monoPAP oral gavage): present in all of the samples from 2 hr to 2 days postdosing
Detection in blood (time points) ([2]; after monoPAP IV dosing): observed in the 2, 4, and 6-hr time points

O=C(O)CC(F)(F)C(F)(F)C(F)(F)C(F)(F)C(F)(F)C(F)(F)F [6:2 FTCA]
Detection in blood (time points) ([1]; after diPAP oral gavage): 6 hr postdosing, but in only one animal
Detection in blood (time points) ([4]; after monoPAP oral gavage): blood samples taken 2, 4, and 6 hr postdosing
Detection in blood (time points) ([2]; after monoPAP IV dosing): 2 hr postdosing

O=C(O)[C@H]1O[C@@H](OCCC(F)(F)C(F)(F)C(F)(F)C(F)(F)C(F)(F)C(F)(F)F)[C@H](O)[C@@H](O)[C@@H]1O [6:2 FTOH-glucuronide]
Detection in blood (time points) ([4]; rat, in vivo, po): observed at 2 hr and 6 hr postdosing

O=C(O)C=C(F)C(F)(F)C(F)(F)C(F)(F)C(F)(F)C(F)(F)F [6:2 FTUCA]
Detection in blood (time points) ([1]; rat, in vivo, po): 6 hr postdosing, but in only one animal
Detection in blood (time points) ([2]; rat, in vivo, iv): observed in the 2, 4, and 6-hr time points

O=C(O)CCC(F)(F)C(F)(F)C(F)(F)C(F)(F)C(F)(F)C(F)(F)C(F)(F)F [7:3 FTCA]
Detection in blood (time points) ([4]; after monoPAP oral gavage): present in all of the samples from 2 hr to 2 days postdosing

O=C(O)CC(F)(F)C(F)(F)C(F)(F)C(F)(F)C(F)(F)C(F)(F)C(F)(F)C(F)(F)F [8:2 FTCA]
Detection in blood (time points) ([1]; after diPAP oral gavage): 6 hr postdosing, but in only one animal
Detection in blood (time points) ([4]; after monoPAP oral gavage): blood samples taken 2, 4, and 6 hr postdosing

O=S(=O)(O)OCCC(F)(F)C(F)(F)C(F)(F)C(F)(F)C(F)(F)C(F)(F)C(F)(F)C(F)(F)F [8:2 FTOH-sulfate]
Detection in blood (time points) ([4]; after monoPAP oral gavage): frequently detected between 6 hr and 2 days postdosing

O=C(O)CC(F)(F)C(F)(F)C(F)(F)C(F)(F)C(F)(F)C(F)(F)C(F)(F)C(F)(F)C(F)(F)C(F)(F)F [10:2 FTCA]
Detection in blood (time points) ([1]; after diPAP oral gavage): present in the blood at the 6-hr time point
Detection in blood (time points) ([3]; after IV diPAP dosing): only in the sample collected 2 days after dosing

O=S(=O)(O)OCCC(F)(F)C(F)(F)C(F)(F)C(F)(F)C(F)(F)C(F)(F)C(F)(F)C(F)(F)C(F)(F)C(F)(F)F [10:2 FTOH-sulfate]
Detection in blood (time points) ([1]; after diPAP oral gavage): at 1 and 2 days after dosing
Detection in blood (time points) ([4]; after monoPAP oral gavage): frequently detected between 6 hr and 2 days postdosing

O=C(O)C(F)(F)C(F)(F)C(F)(F)F [PFBA, perfluorobutanoic acid]
Tmax [1]: 1 day days
Cmax [1]: 3.8 ± 1.0 ng/g
Half-life [3]: 79.2 ± 28.8 h
Tmax [3]: 1 day days
Cmax [3]: 20 ± 5 ng/g
Tmax ([4]; monoPAP gavage dose): 1 day days
Cmax ([4]; monoPAP gavage dose): 9.7 ± 1.9 ng/g
Half-life [2]: 12.7 ± 3.6 h
Cmax [2]: 7.3 ± 1.3 ng/g
Tmax [2]: 6 h
Serum half-lives [6]: on the order of hours

O=C(O)C(F)(F)C(F)(F)C(F)(F)C(F)(F)C(F)(F)C(F)(F)C(F)(F)C(F)(F)C(F)(F)F [PFDA, perfluorodecanoate]
Half-life [1]: 264 ± 48 h
Tmax [1]: 1 day days
Cmax [1]: 3.6 ± 0.6 ng/g
Half-life [3]: 240 ± 48 h
Tmax [3]: 2 days
Cmax [3]: 6.2 ± 1.2 ng/g
Half-life ([4]; monoPAP gavage dose, about 50 mg/kg each, PFCA product in whole blood): 288 ± 190 h
Tmax ([4]; monoPAP gavage dose): 48 h
Cmax (ng/g) ([4]; monoPAP gavage dose): (1.1 ± 0.27) ng/g
Half-life [2]: 312 ± 220 h
Cmax [2]: 0.93 ± 0.20 ng/g
Tmax [2]: 360 h

O=C(O)C(F)(F)C(F)(F)C(F)(F)C(F)(F)C(F)(F)C(F)(F)F [PFHpA, perfluoroheptanoic acid]
Cmax ([1]; male, Sprague-Dawley, rat, in vivo, po, 50 mg/kg, read-out: Cmax): 2.6 ± 0.5 ng/g
Tmax ([1]; male, Sprague-Dawley, rat, in vivo, po, 50 mg/kg, read-out: Tmax (converted)): 24 h
Cmax [3, 7]: 7.3 ± 0.6 ng/g
Tmax [3, 8]: 0.167 days
Tmax ([4]; male, Sprague-Dawley, rat, in vivo, po, 50 mg/kg, monoPAP gavage dose, read-out: Tmax (converted)): 24 h
Cmax ([4]; male, Sprague-Dawley, rat, in vivo, po, 50 mg/kg, monoPAP gavage dose, read-out: Cmax): 9 ± 2.2 ng/g
Cmax [2, 7]: 2.3 ± 0.7 ng/g
Tmax [2, 8]: 24 h

O=C(O)C(F)(F)C(F)(F)C(F)(F)C(F)(F)C(F)(F)F [PFHxA, perfluorohexanoic acid]
Half-life [1]: 101 ± 31.2 h
Tmax [1]: 4 h
Cmax [1]: 10 ± 1.2 ng/g
Half-life [3]: 43.2 ± 12.2 h
Tmax [3]: 1 day days
Cmax (ng/g) [3]: (3.0 ± 1.0) ^d ng/g
Tmax ([4]; monoPAP gavage dose): 4 h
Cmax ([4]; monoPAP gavage dose): 7.4 ± 1.5 ng/g
Half-life [2]: 5.52 ± 5.52 h
Cmax [2]: 5.6 ± 1.3 ng/g
Tmax [2]: 4 h
Serum half-lives [6]: on the order of hours

O=C(O)C(F)(F)C(F)(F)C(F)(F)C(F)(F)C(F)(F)C(F)(F)C(F)(F)C(F)(F)F [PFNA, perfluorononanoate]
Tmax [1]: 190 h
Cmax [1]: 6.4 ± 5.2 ng/g
Tmax [3]: 15 days
Cmax (ng/g) [3]: (4.1 ± 3.3) ng/g
Tmax ([4]; monoPAP gavage dose): 1 day days
Cmax (ng/g) ([4]; monoPAP gavage dose): (1.5 ± 0.09) ng/g
Cmax [2]: 2.3 ± 0.4 ng/g
Tmax [2]: 360 h

O=C(O)C(F)(F)C(F)(F)C(F)(F)C(F)(F)F [PFPeA, perfluoropentanoic acid]
Tmax [3]: 0.083 days
Cmax [3]: 7.1 ± 0.6 ng/g
Cmax [2]: 2.1 ± 0.8 ng/g
Tmax [2]: 6 h

Reference: PMC3059997, “Exploring Indirect Sources of Human Exposure to Perfluoroalkyl Carboxylates (PFCAs): Evaluating Uptake, Elimination, and Biotransformation of Polyfluoroalkyl Phosphate Esters (PAPs) in the Rat” (Environmental Health Perspectives, 2010)
